In a melting point compilation (Tetko et al.; mined from patent text by program, amines drawn as free bases though some values may be those of a salt):

First: O=C(O)CCc1ccnc(-c2nc(=O)c3ccccc3s2)c1
Second: COc1cc(C=O)ccc1OC(=O)NCCc1ccccc1
The melting point of the first is higher: 215 to 216 °C for the first, 133 to 138 °C for the second.

Compared with CC1CCCCC1C(=O)Nc1ccc(-c2cnc(-c3ccc(NC(=O)c4cccnc4)cc3)[nH]2)cc1 (stereo not given), O=C(Nc1cccnc1)N1CCN(c2nccc(-c3ccccc3F)n2)CC1 is lower in melting point: 226 to 228 °C for the first, 200 to 201 °C for the second.

First: COC(=O)c1cc2c(I)cccc2cn1
Second: COC(=O)Nc1ccc(C(=O)OC)nc1
The melting point of the first is lower: 165 to 167 °C for the first, 211 to 213 °C for the second.

Compared with CCOC(=O)N1CCn2c(nc(-c3ccncc3)cc2=O)C(NC(=O)c2ccc3c(c2)CNCC3)C1 (racemic), CCCn1nc(-c2ccncc2)nc1-c1ccncc1 is lower in melting point: 258 to 260 °C for the first, 88 to 89 °C for the second.

First: FC(F)(F)c1cc(C#CCBr)cc(C(F)(F)F)c1
Second: COc1ccc2ccc(Nc3cc(-c4ccc(C(F)(F)F)cc4)ncn3)cc2n1
The melting point of the first is lower: 30 to 31 °C for the first, 199 °C for the second.

Compared with CCOCc1cc2ccc(OCc3ccccc3)cc2o/c1=N\c1ccccc1, O=C(Nc1cc(CO)cc(Nc2c3ccccc3nc3ccccc23)c1)Oc1ccc(N(CCCl)CCCl)cc1 is higher in melting point: 94 to 95 °C for the first, 241 to 242 °C for the second.

Compared with O=C1C[C@@H](NC(=O)OCc2ccccc2)C(=O)O1, CCCC[C@H](NC(=O)[C@H](COC(C)(C)C)NC(=O)OCc1ccccc1)C(=O)CSCc1ccco1 is lower in melting point: 126 to 127 °C for the first, 71 to 73 °C for the second.

First: O=Cc1c(-c2ccc(Cl)cc2)nsc1-c1ccccc1
Second: O=S1(=O)CCN2C=CC(Cl)=C(c3ccc(Oc4ccccc4)cc3)C2=N1
The melting point of the first is lower: 148 to 149 °C for the first, 283 to 284 °C for the second.

Compared with CCOC(=O)c1ccccc1-c1cc(-c2ccc(Cl)cc2Cl)no1, CC(=O)OCc1nnc2n1-c1sc(Cl)cc1C(c1ccccc1Cl)=NC2 is higher in melting point: 85 to 86 °C for the first, 191 to 193 °C for the second.

First: Cc1cc(C)c(-n2nnc3c(-c4ccccc4C(F)(F)F)nc(C)nc32)c(C)c1
Second: CS(=O)c1ccc(CSc2nnc(-c3ccc4[nH]ncc4c3)o2)cc1C(F)(F)F (stereo not given)
The melting point of the first is lower: 139 °C for the first, 170 to 171 °C for the second.

First: COc1cc2c(s1)c(=O)c(SC)cn2C
Second: COc1c2c(cc3c1OCO3)C(=O)CN(C)C2
The melting point of the first is higher: 185 to 187 °C for the first, 116 to 119 °C for the second.

First: C[C@H](C(=O)c1ccccc1F)n1ccn(-c2ccc(OC(F)(F)C(F)F)cc2)c1=O
Second: O=C(NCc1cccc2ccccc12)NC1CCN(S(=O)(=O)c2ccccc2C(F)(F)F)C1 (stereo not given)
The melting point of the first is lower: 78 to 79 °C for the first, 117 to 119 °C for the second.

First: Cc1cn2cccc(OCc3ccc(F)cc3)c2n1
Second: Cc1cccc(-c2n[nH]cc2-c2ccc(F)c(-c3cn(C)cn3)c2)n1
The melting point of the first is lower: 137 °C for the first, 168 to 169 °C for the second.

First: CCCCCCCCCCCCc1ccc(S(=O)(=O)Nc2nnc(CO)s2)cc1
Second: COC(=O)C1=C(C)NC(C)=C(C(=O)OCCCCCCCCN)C1c1cccc([N+](=O)[O-])c1 (stereo not given)
The melting point of the first is higher: 138 to 139 °C for the first, 129 to 131 °C for the second.

First: CC(=O)Nc1ccc(OCCCO[N+](=O)[O-])cc1
Second: CCC(C)COc1ccc(-c2ccc(O)cc2)cc1 (stereo not given)
The melting point of the first is higher: 89 to 92 °C for the first, 80.5 °C for the second.

First: CC(C)c1ccccc1Sc1c(O)cc(-c2cc(Cl)cc(Cl)c2)oc1=O
Second: Oc1c(C2NCCc3ccccc32)ccc2ccccc12 (stereo not given)
The melting point of the first is higher: 168 to 169 °C for the first, 117 to 120 °C for the second.

CC(=O)NC(C(=O)O)c1ccc2occc2c1 (stereo not given) and CCn1nc2c(N)nc3ccccc3c2c1CC1(O)CCN(C(C)=O)CC1 cannot be ordered by melting point: 230 to 232 °C for the first, 231 to 232 °C for the second.

Compared with Nc1nc(S(N)=O)c2[nH]cnc2n1 (stereo not given), Cc1cc(=O)c(C(=O)Nc2nnc(C)s2)c(C)o1 is lower in melting point: greater than 250 °C for the first, 203 to 204 °C for the second.

First: CCn1c(=O)cc(C2CCCCC2)c2cccnc21
Second: Cc1cccc(C)c1C1CCN(Cc2cc3ccccc3[nH]2)CC1
The melting point of the first is lower: 88 to 89 °C for the first, 128 to 130 °C for the second.

First: CCCCCCC(C)Nc1ccc2c(c1)CCN2c1ncnc2cc(OC)c(OC)cc12 (stereo not given)
Second: COc1cc(C2CCN(C[C@@H](C)O)CC2)ccc1Nc1ncc2ccc(-c3ccccc3N(C)S(C)(=O)=O)n2n1
The melting point of the first is lower: 61 to 63 °C for the first, 91 to 103 °C for the second.

Compared with CCOc1ccc(N(C)C=C(C#N)C#N)cc1, CCOC(=O)C(=Cc1cccn2cc(C(F)(F)F)nc12)N=[N+]=[N-] is lower in melting point: 147 to 148 °C for the first, 140 to 142 °C for the second.

O=c1cc(NCCNCCOc2cccc3c2OCCO3)cn[nH]1 and COCCOc1ccc(CCCOC(=O)N2CCOCC2)c(Oc2ncc(C(F)(F)F)cc2Cl)c1 cannot be ordered by melting point: 81 to 83 °C for the first, 82.3 to 82.4 °C for the second.

Compared with CNC(=O)[C@@H](NC(=O)[C@H](CC(=O)O)CC(C)C)C(C)(C)C, CCOC(=O)c1c(CBr)n(C)c2cc(Br)c(OC(C)=O)cc12 is lower in melting point: 204 to 205 °C for the first, 179 to 180 °C for the second.

Compared with CCc1cc([N+](=O)[O-])c(NC(CC)CC)c([N+](=O)[O-])c1COC, CCCCCC(=O)OCn1cnc2c1c(=O)n(C)c(=O)n2C is higher in melting point: 28 to 29 °C for the first, 67 to 72 °C for the second.

Compared with COC(=O)CCCCc1csc(N=C2SC[C@@H]3Cc4ccccc4CN23)n1, CC12CCC(=O)C=C1CCC(=Cc1cccs1)C2=O (stereo not given) is higher in melting point: 92 °C for the first, 107 °C for the second.
